Reference: patent publication US6019959A, “Oligomeric compounds that contain perfluoroalkyl, process for their production, and their use in NMR diagnosis” (Schering Aktiengesellschaft, priority 1998, dated 2000)
“Also recorded” adds a separate entry of the source. Where two headings read alike, the source gives them in different places.

Key:
[1] = Elimination of the contrast medium after s.c. administration (metal retention in organs); type: in vivo, guinea pig; conditions: 7 d p.i., 10 μmol/kg s.c., MW±SD, n=2
Text: After subcutaneous administration of 10 μmol of total gadolinium (Example 19)/kg of body weight in the hind paw of the guinea pig, the retention of metal in the liver, in the kidneys and in the spleen was examined 7 days after administration.
Gd Concentration [% of Dose] in the Liver, Kidneys, Spleen (7 d p.i.) After Interstitial Administration of 10 μmol/kg (MW±SD, n=2)

[2] = Determination of the T1-relaxivity with a Minispec pc 20 in human plasma; type: physicochemical; conditions: for R^1 (T^1-relaxivity): 0.47 T (20 MHz), 37° C., human plasma, normalized to one metal atom; for relaxivity r1,plasm: plasma
Experimental: Determination of the T^1 -Relaxivity of Selected Compounds
The relaxivity of the following compounds was determined
with a Minispec pc 20 (20 MHz, 0.47 T) at 37° C. in human plasma
and compared to that of Gd-DTPA-polylysine and Magnevist^(R) as
comparison substances. Since the substances according to the
invention contain more than one metal atom, the relaxivity was
normalized to one metal atom for purposes of comparison.

[3] = Blood elimination kinetics after one-time intravenous administration; type: in vivo, rats; conditions: for Distribution volume Vss (MEAN) / Elimination half-life tβ (MEAN) / Total clearance CLtot (MEAN) / tα (MEAN): two-compartment model, n=3; for distribution volume in comparison to Dy-DTPA / elimination from the blood in comparison to Dy-DTPA: i.v., rats
Experimental: (§1) For this purpose, after one-time intravenous administration (via a caudal vein) of the substances (dose: ≈100 μmol of metal per kg of body weight), the substance concentration in the blood (based on the Gd or Dy content) was determined over a period of up to 120 minutes p.i. using ICP-AES. The pharmacokinetic parameters: distribution volume (Vss), total clearance (CLtot) and elimination half-life (tb) were calculated with a special computer program (TOPFIT 2.0; Thomae, Schering, Godecke), whereby a two-compartment distribution model was used as a basis.
The Gd and Dy contents in the blood were determined using ICP-AES.
as §1, with “metal” for “Gd or Dy”

[4] = Retention of the opacifying metal at the injection site; type: in vivo, guinea pig; conditions: 10 μmol/kg s.c., MW±SD, n=3
Text: After s.c. administration of 10 μmol of total gadolinium (Example 19)/kg of body weight in the guinea pig's paw, the retention of metal at the injection site was studied at different times.
Gd-Concentration [% dose] at the Administration Site (Paw), After Interstitial Administration of 10 μmol/kg (MW±SD, n=3)

[5] = Lymph node concentration in guinea pigs after subcutaneous administration (ICP-AES); type: in vivo, guinea pig; conditions: 10 μmol/kg s.c., MW±SD, n=3
Text: The compounds according to the invention meet all of the requirements that are imposed by contrast media in indirect NMR lymphography: good local compatibility, quick removal from the injection site, quick and as complete an elimination as possible from the entire organism. They also show a high concentration over several lymph node stations and thus allow relevant diagnostic assessments. Thus, in the guinea pig model, a high concentration over several lymph node stations (popliteal, inguinal, iliac) after s.c. administration (2.5-10 μmol/kg of body weight, injection in the interdigital spaces of the hind paws) was shown. In especially suitable cases, gadolinium concentrations of, respectively, ≥200 or ≥300 μmol/l were thus obtained in the second (inguinal) and third (iliac) stations. Lymph node concentrations up to 1,000 μmol/l can usually be obtained with the compounds according to the invention.
The gadolinium complex of Example 19 was studied 30 minutes/90 minutes after subcutaneous administration (10 μmol of total gadolinium/kg of body weight, hind paw s.c.) to stimulated guinea pigs (complete Freund adjuvant; in each case 0.1 ml in the right and left upper and lower legs; 2 weeks before administration of the test substance) to determine their lymph node concentration in three successive lymph node stations (popliteal, inguinal, iliac). In this case, the results that are listed below (determination of gadolinium concentration using ICP-AES) are obtained:
Gd-Concentration [μmol/l] in three successive lymph node stations 30 and 90 minutes after interstitial administration of 10 μmol/kg (MW±SD, n=3)

[6] = In-vivo comparison with an intravascular and an extracellular contrast medium in blocked kidneys (diffusibility); parameters: species or system rats; conditions: for Percentage of the dose that remains in the blood space: i.v., blocked renal vessels, compound 2 set at 100%
Experimental: As test animals, three 250 g male (Schering-SPF) rats were used. The renal vessels in the animals were blocked to prevent renal elimination and, assuming that fecal elimination is negligible, to obtain a measure of the diffusibility of the formulation according to the invention from the blood into the surrounding tissue. 0.5 ml (in each case 10 mmol/l) of the following contrast medium solution was intravenously administered per animal: a mixture consisting of 1 part each of the compound of Example 1g, named compound 1 below, of intravascular contrast medium Eu-DTPA-albumin, named compound 2 below and of extracellular contrast medium Dy-DTPA, named compound 3 below. Via a catheter in the common carotid artery, blood samples were taken at the following times: 15, 30, 45, 60, 90 seconds; 3, 5, 10, 15 minutes p.i. In the blood samples that were obtained, in each case the concentrations of gadolinium (Gd), europium (Eu) and dysprosium (Dy) were measured in parallel using atom emission spectrometry (ICP-AES). The proportion of the intravascular contrast medium compound 2 (Eu) that remains in the blood space was set at 100%. It was possible to compare the proportion of the formulation according to the invention of compound 1 (Gd) and compound 3 (Dy, extracellular comparison substance) that remained in the blood space by the different labeling in the same animal, and the proportion was set as a percentage of the concentration of compound 2.

[7] = Contrast-medium-supported MR angiography; type: in vivo, rats; conditions: one-time i.v. 50 or 100 μmol/kg, 2.0 tesla
Experimental: The studies on contrast-medium-supported MR angiography were performed on an experimental MRT system (SISCO SIS 85, 2.0 tesla) with a 3 D FLASH technique (10/2.6/40°).
To determine the effectiveness of contrast media for visualizing blood vessels, anesthetized (Rompun®+Ketavet®, 1+1, v/v; ≈1 ml per kg of body weight, i.m.) rats (Han. Wistar; ≈200 g of body weight) were studied by MR tomography.
The MIP (maximum intensity projection) images were calculated from the 3 D FLASH experiments before (left) and directly after one-time i.v. administration of 50 μmol/kg (center) or 100 μmol/kg (right) of the substance of Example 1g.

[8] = rat, in vivo; cited from earlier work
[9] = cited from earlier work
[10] = Table 4, i.v. ≈100 μmol metal/kg
[11] = Table 3, i.v. ≈100 μmol metal/kg

Q: Which results are given for “1,4,7-Tris{1,4,7-tris(N-carboxylatomethyl)-10-[N-(4,7-diaza-3,6,9-trioxo)-nonane-2,9-diyl]-1,4,7,10-tetraazacyclododecane, Gd complex}-10-[N-acetyl-(2-amino-N-ethyl-N-perfluoro-octylsulfonyl)]-1,4,7,10-tetraazacyclododecane [Example 19]”?
A: Gadolinium content in the organs, kidneys [1]: 0.06 ± 0.04 % dose; Gadolinium content in the organs, liver [1]: 0.09 ± 0.09 % dose; Gadolinium content in the organs, spleen [1]: 0.00 ± 0.01 % dose; R^1 (T^1-relaxivity) [2]: 21.4 L/mmol/s; relaxivity r1,plasm [2]: ≈ 19.5 l*mmol^-1 *s^-1; Distribution volume Vss (MEAN) [3, 10]: 0.12 Ukg; Elimination half-life tβ (MEAN) [3, 10]: 1.49 h; Total clearance CLtot (MEAN) [3, 10]: 0.94 mL·kg·min; tα (MEAN) [3, 10]: 2.52 min; distribution volume in comparison to Dy-DTPA [3]: smaller distribution volume; elimination from the blood in comparison to Dy-DTPA [3]: significantly slower elimination from the blood; Gadolinium concentration at the injection site (paw) ([4]; 30 minutes p.i.): 48.4 ± 10.4 % of dose; Gadolinium concentration at the injection site (paw) ([4]; 90 minutes p.i.): 8.0 ± 1.7 % of dose; Gadolinium concentration at the injection site (paw) ([4]; 7 days p.i.): 0.7 ± 0.6 % of dose; concentration ([5]; 30 minutes p.i., read-out: Gd concentration, blood): 24 ± 3 µM; concentration ([5]; 30 minutes p.i., read-out: Gd concentration, iliac lymph nodes): 50 ± 18 µM; concentration ([5]; 30 minutes p.i., read-out: Gd concentration, inguinal profund lymph nodes): 43 ± 41 µM; concentration ([5]; 30 minutes p.i., read-out: Gd concentration, popliteal lymph nodes): 345 ± 319 µM; concentration ([5]; 30 minutes p.i., read-out: Gd concentration, urine): 261 ± 167 µM; concentration ([5]; 90 minutes p.i., read-out: Gd concentration, blood): 25 ± 4 µM; concentration ([5]; 90 minutes p.i., read-out: Gd concentration, iliac lymph nodes): 20 ± 8 µM; concentration ([5]; 90 minutes p.i., read-out: Gd concentration, inguinal profund lymph nodes): 9 ± 2 µM; concentration ([5]; 90 minutes p.i., read-out: Gd concentration, popliteal lymph nodes): 75 ± 20 µM; concentration ([5]; 90 minutes p.i., read-out: Gd concentration, urine): 348 ± 119 µM

Q: With CC(C(=O)NCC(=O)NCC(=O)N1CCN(C(=O)CNC(=O)CNC(=O)C(C)N2CCN(CC(=O)[O-])CCN(CC(=O)[O-])CCN(CC(=O)[O-])CC2)CCN(C(=O)COCCC(F)(F)C(F)(F)C(F)(F)C(F)(F)C(F)(F)C(F)(F)C(F)(F)C(F)(F)F)CCN(C(=O)CNC(=O)CNC(=O)C(C)N2CCN(CC(=O)[O-])CCN(CC(=O)[O-])CCN(CC(=O)[O-])CC2)CC1)N1CCN(CC(=O)[O-])CCN(CC(=O)[O-])CCN(CC(=O)[O-])CC1.[Gd+3].[Gd+3].[Gd+3] (centres unmarked) [Example 1g, 1,4,7-Tris{,1,4,7-tris(N-carboxylatomethyl)-10-(N-1-methyl-3,6-diaza-2,5,8-trioxo-octane-1,8-diyl)-1,4,7,10-tetraazacyclododecane, Gdcomplex}-10-(N-2H,2H,4H,4H,5H,5H-3-oxa-perfluoro-tridecanoyl)-1,4,7,10-tetraazacyclododecane] as the compound, how does the “Percentage of the dose that remains in the blood space” value (shortened to “Percentage of the dose that remains”) ([6]; 30 seconds p.i.) read?
A: Its value is 84%.

Q: And the “Percentage of the dose that remains” value ([6]; 3 minutes p.i.)?
A: Its value is 62%.

Q: What about the “Percentage of the dose that remains” value ([6]; 10 minutes p.i.) of the same compound?
A: Its value is 44%.

Q: What about the “diffusibility from the vascular space into the surrounding tissue” value ([6]; compared with compound 2 and compound 3, listed as compound 1) of the same compound?
A: The value was “slower during the entire test period; also recorded: significantly lower compared to the free diffusible, extracellular compound 3”.

Q: What about the “R^1 (T^1-relaxivity)” value [2] of the same compound?
A: The value was 19.5 L/mmol/s.

Q: What about the “relaxivity r1,plasm” value [2] of the same compound?
A: The value was “≈ 19.5 l*mmol^-1 *s^-1”.

Q: And the “signal in the blood vessels in MR angiography (3 D FLASH, MIP)” value [7]?
A: Its value is “pronounced signal increase in the blood vessels”.

Q: What about the “Distribution volume Vss (MEAN)” value [3, 11] of the same compound?
A: The value was 0.09 Ukg.

Q: And the “Elimination half-life tβ (MEAN)” value [3, 11]?
A: Its value is 2.813 h.

Q: And the “Total clearance CLtot (MEAN)” value [3, 11]?
A: Its value is 0.41 mU (min*kg).

Q: What about the “tα (MEAN)” value [3, 11] of the same compound?
A: Its value is 4.06 min.

Q: What about the “distribution volume in comparison to Dy-DTPA” value [3] of the same compound?
A: Its value is “smaller distribution volume”.

Q: What about the “elimination from the blood in comparison to Dy-DTPA” value [3] of the same compound?
A: Its value is “significantly slower elimination from the blood”.

Q: What does the source list for Gd-DTPA-polylysine [reference compound]?
A: excretion route [8]: excreted through the kidneys unaltered by glomerular filtration; R^1 (T^1-relaxivity) [2]: 16.8 L/mmol/s

Q: With albumin-Gd-DTPA as the compound, how does the “concentration in the liver tissue” value ([9]; 24 hours after intravenous injection) read?
A: Its value is ~30 % of the dose.

Q: What about the dose eliminated ([9]; within 24 hours) of the same compound?
A: The dose eliminated was 20 % of the dose.
